# Data as given in publication PMC3502156, “Anti-plasmodial action of de novo-designed, cationic, lysine-branched, amphipathic, helical peptides” (Malaria Journal, 2012).
# “And” between values parts separate entries of the source, which are not always exact repeats. Identical values can stand only once. Like-named read-outs stand apart in the source and are kept apart here. Starred links: 1 amine or outer side, 2 acyl side, 3 side chain; linkers in the order of their positions; H or OH if unused. Positions of bridges follow the written chain, without caps; N, C: chain ends. Non-standard residues stand in square brackets, D forms with d. Residues, ends and D or L forms follow the SMILES beside them. Chains are numbered I, II in the order given. X1 = O=C(/C(=C/c1ccccc1)N[*:1])[*:2]
# Columns and labels:
# [1] = system: P. falciparum Dd2 (CQ-resistant); experiment: microbe, parasite or virus in culture; format: cell-based, Plasmodium falciparum; details: for Resistance index IC50 Dd2/ IC50 3D7: IC50 CQ resistant strain/ IC50 CQ sensitive strain
# Description: (§1) Chloroquine-sensitive (3D7) and CQ-resistant (Dd2 and INDO) strains of P. falciparum were maintained in continuous culture according to the method of Trager and Jensen with minor modifications. Cultures were maintained in fresh group O^+ve human erythrocytes suspended at 4% haematocrit in complete medium {16.2 g/L RPMI 1640 containing 25 mM HEPES, 11.11 mM glucose (Gibco), 0.2% sodium bicarbonate (Sigma), 0.5% Albumax I (Gibco), 45 μg/litre hypoxanthine (Sigma) and 50 μg/litre gentamicin (Gibco)} and incubated at 37°C under a gas mixture 5% O2, 5% CO2, and 90% N2. Every day, the spent medium was replaced by fresh complete medium to propagate the culture. […] Parasitaemia was monitored by microscopic examination of Giemsa-stained blood smears. Synchronized ring stage parasite was obtained by 5% sorbitol treatment. Trophozoites and schizont-stage parasites were enriched by using Percoll gradient.
# (§2) Stock solutions of peptides and CQ were prepared in water (milli-Q grade) while artemisinin stock solution was in dimethyl sulphoxide (DMSO). All stocks were then diluted with culture medium to achieve the required drug concentrations. The concentration of peptide solution in water was based on A280 [ϵ (M^-1 cm^-1) ΔF (didehydrophenylalanine) 19,000, W (Tryptophan) 5,000)]. Thus ϵ280 were 62,000, 124,000, 124,000 and 248,000 for ΔFm, (ΔFm)2, ΔFd and ΔFq respectively. The concentration of FITC-peptides was based on A495 [ϵ(M^-1 cm^-1) FITC 77,000 for (ΔFm)2 with one FITC and 154,000 for ΔFd with two FITC per molecule]. Drugs and peptides solutions were placed in 96-well flat bottom tissue culture grade plates (Corning).
# (§3) For drug screening, SYBR green I based fluorescence assay was used as described previously by Smilkstein et al.[30]. Sorbitol synchronized ring stage parasites (haematocrit: 2%, parasitaemia: 1%, 100 μl) under normal culture conditions were incubated in the absence or presence of increasing concentrations of peptides in water. CQ and artemisinin were used as positive controls. […] After 48 hr of incubation 100 μl of SYBR Green I buffer [0.2 μl of 10,000 X SYBR Green I (Invitrogen) per ml of lysis buffer {Tris (20 mM; pH 7.5), EDTA (5 mM), saponin (0.008%; wt/vol), and Triton X-100 (0.08%; vol/vol)}] was added to each well, mixed twice gently with multi-channel pipette and incubated in dark at 37 °C for 1 h. Fluorescence was measured with a Victor fluorescence multi-well plate reader (Perkin Elmer) with excitation and emission wavelength centred at 485 and 530 nm, respectively. Fluorescence counts for CQ (0.1 μM for 3D7, 1 μM for INDO) were subtracted from counts in each well. The fluorescence counts were plotted against the drug concentration and IC50 (the 50% inhibitory concentration) was determined by analysis of dose–response curves. Results of the above mentioned fluorescence-based assay were validated microscopically by examination of Giemsa-stained smears of peptide-treated parasite cultures. Statistical significance of relative potencies of peptides was determined by student’s T test.
# [2] = system: P. falciparum 3D7 (chloroquine-sensitive); experiment: microbe, parasite or virus in culture; format: cell-based, Plasmodium falciparum
# Description: as §1, §2, §3
# [3] = system: P. falciparum INDO (CQ-resistant); experiment: microbe, parasite or virus in culture; format: cell-based; details: Plasmodium falciparum; ring stage synchronized, 48 hr, SYBR Green I fluorescence, medium with 10% human serum; ± SD of three independent observations
# Description: as §1, with “Synchronized ring stage parasite was obtained by 5% sorbitol treatment. Trophozoites and schizont-stage parasites were enriched by using Percoll gradient.” left out
# For drug screening, SYBR green I based fluorescence assay was used as described previously by Smilkstein et al.[30]. […] Fluorescence was measured with a Victor fluorescence multi-well plate reader (Perkin Elmer) with excitation and emission wavelength centred at 485 and 530 nm, respectively. Fluorescence counts for CQ (0.1 μM for 3D7, 1 μM for INDO) were subtracted from counts in each well. […] Results of the above mentioned fluorescence-based assay were validated microscopically by examination of Giemsa-stained smears of peptide-treated parasite cultures. Statistical significance of relative potencies of peptides was determined by student’s T test.
# [4] = system: P. falciparum 3D7 (chloroquine-sensitive); experiment: microbe, parasite or virus in culture; format: cell-based, Plasmodium falciparum; remark: listed apart in the source
# [5] = system: P. falciparum 3D7 trophozoites; experiment: Immunofluorescence staining of MSP3 in ΔFd treated trophozoite cultures; format: cell-based, Plasmodium falciparum; details: ΔFd 2.5 μM, 37°C, 6 hr; three independent observations
# Description: Immunohistochemical Fluorescence staining of MSP3 in ∆Fd treated Trophozoite and Schizont cultures.
# To probe mechanistic details of ∆Fd-mediated, premature parasite egress, P. falciparum 3D7 culture (2%
# parasitaemia, 2% haematocrit) was incubated without (control) or with ∆Fd (2.5 µM) at 37°C for 6 hr in a final
# volume of 100 µl made with RPMI (96 µl RPMI + 4 µl peptide solution). Smears were processed as follows: (a)
# flooded with 2% BSA/PBS (1 hr, 37°C), (b) PBS washed and (c) flooded (1 hr, 370C) with polyclonal anti-MSP3
# antibody produced in mouse (1: 100 dilution in 1% BSA/PBS), (d) PBS washed and (e) flooded with alexa fluor 488
# labelled anti-mouse antibody (Sigma) (1: 500 dilution in 1% BSA/PBS, 1 hr, 370C in dark), (e) PBS washed and (f)
# flooded with DAPI (4, 6-diamidino-2-phenylindole) (invitrogen) (500 ng/ml, 10 min, 370 C). After a final PBS wash
# the smears were observed under Nikon eclipse fluorescence microscope using appropriate filters.
# [6] = system: infected erythrocytes (PRBC); experiment: Haemolysis assay, parasitized red cells; format: cell-based, Plasmodium falciparum; details: 3 h
# Description: (§4) Selectivity of haemolysis by peptides for infected erythrocytes (PRBC) vs uninfected erythrocytes (URBC) was examined by incubating the test molecules with URBCs and PRBCs respectively in phosphate-buffered saline (PBS). Briefly, fresh RBCs were spin washed (1600 RPM; 5 min) three times in PBS and re-suspended in PBS at 2% haematocrit. A 100 μl suspension was added to 96-well plate containing the peptides at different concentrations. […] After incubation at 37°C for 3 hr, the samples were centrifuged and supernatant was used to determine the haemolytic activity measured in terms of haemoglobin release as monitored by […]. Triton-treated control samples were diluted 10-fold before reading absorbance. […] Percent haemolysis has been expressed with reference to 100% haemolysis value assigned to positive control (triton X 100 treated RBCs). To study haemolytic susceptibility of parasitized cells, URBCs were replaced with varying percentages (10% and 20%) of mixed stage parasitized cells. […] Haemolysis of parasitized erythrocytes was also monitored microscopically by examining the Giemsa-stained smears. Parasitaemia of ΔFd treated and untreated cultures were microscopically counted for ring, trophozoite and schizont stages respectively. Susceptibility of different stages was compared with corresponding untreated control cultures.
# proteases = details: branched dimer compared with linear dimer (ΔFm)2; cited from earlier work
# Text: Some important features of these peptides as drugs against malaria include their favourable resistance indices (Table 1) that allow them to rapidly kill both drug-sensitive and drug-resistant strains of malaria parasite with equal potencies, their amphipathic nature that gives them drug-like character, and their ability to permeabilize and penetrate biological membranes, which allows them to attack target cells both from the surface as well as intracellularly. In addition, the presence of the conformationally constrained, non-protein, amino acid didehydrophenylalanine in both ΔFd and (ΔFm)2 pr ...
# HeLa cells = format: cell-based; details: 48 h
# Description: The cytotoxic effects of ΔFd on mammalian cells was assessed by functional assay as described using HeLa cells cultured in RPMI containing 10% fetal bovine serum, 0.21% sodium bicarbonate (Sigma) and 50 μg/mL gentamycin (complete medium). Briefly, cells (10^4 cells/200 μl/well) were seeded into 96-well flat-bottom tissue culture plates in complete medium. […] DMSO (as positive inhibitor) was added at 10%. Twenty microlitres of a stock solution of MTT (5 mg/mL in 1X phosphate buffered saline) was added to each well, gently mixed and incubated for another 4 hr. After spinning the plate at 1500 rpm for 5 min, supernatant was removed and 100 μl of DMSO (stop agent) was added. Formation of formazon was read on a microtiter plate reader (Versa max tunable multi-well plate reader) at 570 nm. The 50% cytotoxic concentration (TC50) of drug was determined by analysis of dose–response curves.
# [7] = system: uninfected erythrocytes (URBC); experiment: Haemolysis assay, uninfected red cells; format: cell-based, human; details: 3 h
# Description: as §4
SMILES,Resistance index IC50 Dd2/ IC50 3D7 [1],"IC50 ([1]; Plasmodium falciparum, DD2, ring stage synchronized, haematocrit 2%, parasitaemia 1%, 48 hr, SYBR Green I fluorescence, ± SD of three independent observations, read-out: IC50 P. falciparum Dd2) [nM]","IC50 ([2]; Plasmodium falciparum, 3D7, ring stage synchronized, haematocrit 2%, parasitaemia 1%, 48 hr, SYBR Green I fluorescence, ± SD of three independent observations, read-out: IC50 P. falciparum 3D7) [nM]",IC50 [3] [nM],"increment in potency at 96 hr (two cycles) vs 48 hr (one cycle) ([4]; P. falciparum 3D7, SYBR Green assay) [fold]","IC70 ([4]; P. falciparum 3D7, dose used on trophozoite and schizont cultures) [nM]",anomalously egressed trophozoites with MSP3 staining [5],"percentage haemolysis, mixed culture 10% parasitaemia [6] [%]","percentage haemolysis, mixed culture 20% parasitaemia [6] [%]","IC50 ([1]; Dd2 (CQ-resistant, 48 h)) [nM]","IC50 ([2]; 3D7 (chloroquine-sensitive, 48 h)) [nM]",stability against proteases (proteases),TC50 HeLa cells (HeLa cells) [nM],HC50 URBC [7] [µM],Hemolytic Selectivity index (HC50 URBC/ IC50 Pf 3D7) [7]
"C[C@@H]1CC[C@H]2[C@@H](C)C(=O)O[C@@H]3O[C@@]4(C)CC[C@@H]1[C@]32OO4 [Artemisinin, reference compound]",1,16,15,15,,,,,,,,,,,
CC(=O)NCC(=O)N/C(=C\c1ccccc1)C(=O)N[C@@H](CCCNC(=N)N)C(=O)N[C@@H](CCCCN)C(=O)N/C(=C\c1ccccc1)C(=O)N[C@@H](Cc1c[nH]cn1)C(=O)N[C@@H](CCCCN)C(=O)N/C(=C\c1ccccc1)C(=O)N[C@@H](Cc1c[nH]c2ccccc12)C(=O)N[C@@H](C)C(=O)NCCCC[C@H](NC(=O)[C@H](C)NC(=O)[C@H](Cc1c[nH]c2ccccc12)NC(=O)/C(=C/c1ccccc1)NC(=O)[C@H](CCCCN)NC(=O)[C@H](Cc1c[nH]cn1)NC(=O)/C(=C/c1ccccc1)NC(=O)[C@H](CCCCN)NC(=O)[C@H](CCCNC(=N)N)NC(=O)/C(=C/c1ccccc1)NC(=O)CNC(C)=O)C(N)=O [ΔFd] (I: Ac-G[X1]RK[X1]HK[X1]WAK-NH2 / II: Ac-G[X1]RK[X1]HK[X1]WA; amide I:11-II:C; N-terminus and C-terminus assumed),1.1 and ~ 1,,,,1.1,2500,~ 40%,7,16,1600 ± 90,1390 ± 100,more stable against proteases,> 25000,> 50,> 35
